Results reported in ChEMBL document CHEMBL1135660, “Design, synthesis, and tripeptidyl peptidase II inhibitory activity of a novel series of (S)-2,3-dihydro-2-(4-alkyl-1H-imidazol-2-yl)-1H-indoles” (J Med Chem, 2002).

Target: Tripeptidyl-peptidase 2 (Rattus norvegicus, UniProt Q64560)
Assay: Inhibitory activity against tripeptidyl peptidase II purified from rat liver

Chain of Tripeptidyl-peptidase 2 (Q64560 whole entry): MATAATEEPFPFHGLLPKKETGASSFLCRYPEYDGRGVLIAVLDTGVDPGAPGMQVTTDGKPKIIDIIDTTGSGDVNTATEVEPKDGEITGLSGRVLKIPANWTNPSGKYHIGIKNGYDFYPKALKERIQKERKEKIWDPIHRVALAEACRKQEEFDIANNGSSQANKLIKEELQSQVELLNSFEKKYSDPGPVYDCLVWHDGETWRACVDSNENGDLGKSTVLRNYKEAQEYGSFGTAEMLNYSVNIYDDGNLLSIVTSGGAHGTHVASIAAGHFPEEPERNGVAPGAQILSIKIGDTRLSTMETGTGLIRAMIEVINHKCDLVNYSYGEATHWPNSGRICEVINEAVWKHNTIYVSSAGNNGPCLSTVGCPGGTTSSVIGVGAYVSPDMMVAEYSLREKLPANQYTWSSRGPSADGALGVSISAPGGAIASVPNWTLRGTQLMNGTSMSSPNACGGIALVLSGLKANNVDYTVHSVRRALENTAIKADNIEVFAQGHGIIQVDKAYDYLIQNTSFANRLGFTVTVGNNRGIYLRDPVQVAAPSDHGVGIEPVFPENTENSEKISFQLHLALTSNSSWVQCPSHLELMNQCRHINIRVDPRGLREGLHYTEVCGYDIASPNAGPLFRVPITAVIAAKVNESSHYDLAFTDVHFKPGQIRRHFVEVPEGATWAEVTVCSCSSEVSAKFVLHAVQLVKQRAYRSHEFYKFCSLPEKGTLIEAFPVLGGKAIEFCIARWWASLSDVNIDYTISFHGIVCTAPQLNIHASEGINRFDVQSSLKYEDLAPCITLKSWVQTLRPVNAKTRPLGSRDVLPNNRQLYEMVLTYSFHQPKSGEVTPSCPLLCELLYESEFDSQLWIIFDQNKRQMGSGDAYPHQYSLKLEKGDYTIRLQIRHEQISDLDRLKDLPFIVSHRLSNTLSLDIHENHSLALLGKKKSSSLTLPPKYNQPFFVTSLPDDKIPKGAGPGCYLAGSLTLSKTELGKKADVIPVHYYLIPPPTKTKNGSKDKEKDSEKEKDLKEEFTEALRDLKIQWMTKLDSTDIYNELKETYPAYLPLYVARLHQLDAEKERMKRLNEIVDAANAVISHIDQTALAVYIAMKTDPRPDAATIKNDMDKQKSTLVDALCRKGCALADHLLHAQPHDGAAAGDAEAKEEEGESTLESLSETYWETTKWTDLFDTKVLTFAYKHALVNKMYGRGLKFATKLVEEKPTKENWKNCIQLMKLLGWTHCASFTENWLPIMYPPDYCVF

| IC50 [µM] | Structure (SMILES) |
| --- | --- |
| 0.023 | CC[C@H](N)C(=O)N1c2ccccc2C[C@H]1c1ncc(C)[nH]1 |
| > 10 | CCCc1cnc([C@@H]2Cc3ccccc3N2C(C)=O)[nH]1 |
| > 10 | CC[C@@H]1NC(=O)[C@@H]2Cc3ccccc3N2C1=O |
| > 10 | CCc1c[nH]c([C@@H]2Cc3ccccc3N2C(=O)[C@H](C)N)n1 |
